Tests used:
[1] = system: biofilms of S. aureus ATCC 29213; test: 24-hour action upon 24-hour biofilms in 96-well plates, CFU count; settings: S. aureus ATCC 29213 biofilm
Excerpt: (§1) Biofilms used in testing were produced by 24-hour cultivation in 96-well plates.

[2] = system: VRSA strain VT-A-199; test: MIC, broth macrodilution (CLSI); settings: planktonic, inoculum 10^5 cfu/mL
Description: (§2) The MICs were determined using a broth macrodilution method with cation-adjusted Mueller-Hinton broth II (Becton Dickinson) at standard inoculum (10^5 cfu/mL) following the CLSI recommendations.

[3] = system: biofilms of S. aureus MRSA 24/31; test: 24-hour action upon 24-hour biofilms in 96-well plates, CFU count; settings: S. aureus MRSA 24/31 biofilm
Excerpt: as §1

[4] = system: MSSA strain ATCC 29213; test: MIC, broth macrodilution (CLSI); format: cell-based, S. aureus; settings: planktonic, inoculum 10^5 cfu/mL
[5] = system: bacteria and fungi; test: Antimicrobial activity, overall comparison of the substances; format: cell-based
[6] = system: biofilms of S. aureus MRSA 201/010; test: 24-hour action upon 24-hour biofilms in 96-well plates, CFU count; settings: S. aureus MRSA 201/010 biofilm
Excerpt: as §1

[7] = system: VRSA strain VT-E-25; test: MIC, broth macrodilution (CLSI); settings: planktonic, inoculum 10^5 cfu/mL
Description: as §2

[8] = system: VRSA strain VT-V-18; test: MIC, broth macrodilution (CLSI); settings: planktonic, inoculum 10^5 cfu/mL
Description: as §2

[9] = system: Candida albicans ATCC 10231; test: MIC, broth microdilution or agar dilution (CLSI); format: cell-based; settings: C. albicans ATCC 10231
[10] = system: S. aureus MRSA 201/010; test: MIC, broth microdilution or agar dilution (CLSI); format: cell-based, Staphylococcus aureus
[11] = system: S. aureus MRSA 24/31; test: MIC, broth microdilution or agar dilution (CLSI); format: cell-based, Staphylococcus aureus
[12] = system: Aspergillus fumigatus ATCC 204305; test: MIC, broth microdilution or agar dilution (CLSI); format: cell-based; settings: A. fumigatus ATCC 204305

**Q.** How did the “decrease of the number of CFU in biofilm” value ([1]; 24-hour action) turn out when `O=C1NC(=O)C(=Cc2cc(Br)cc(Br)c2O)C(=O)N1` [Compound 1, 5-(3,5-dibromo-2-hydroxybenzylidene) perhydropyrimidine-2.4,6-trione] was run?
**A.** Its value is 10,000 times.

**Q.** What about the “VRSA strain MIC, VT-A-199” value [2] of the same compound?
**A.** Its value is 0.07 µg/mL.

**Q.** What about the “decrease of the number of CFU in biofilm” value ([3]; 24-hour action) of the same compound?
**A.** Its value is 10,000 times.

**Q.** And the “MSSA strain MIC, ATCC 29213” value [4]?
**A.** Its value is 0.7 µg/mL.

**Q.** And the “antimicrobial activity, comparison among the inventive substances” value (shortened to “antimicrobial activity”) [5]?
**A.** Its value is “best activity”.

**Q.** What about the “decrease of the number of CFU in biofilm” value ([6]; 24-hour action) of the same compound?
**A.** Its value is 10,000 times.

**Q.** What about the “VRSA strain MIC, VT-E-25” value [7] of the same compound?
**A.** The value was 1.5 μg/ml.

**Q.** And the “VRSA strain MIC, VT-V-18” value [8]?
**A.** Its value is 0.7 µg/mL.

**Q.** `COc1ccc(CN2C(=O)NC(=O)C(=Cc3cc(Br)cc(Br)c3O)C2=O)cc1` [Compound 15, 1-(4-methoxybenzyl)-5-(3,5-dibromo-2-hydroxybenzylidene) perhydropyrimidine-2.4,6-trione] was tested. Which “antimicrobial activity” value [5] did it give?
**A.** Its value is “best activity”.

**Q.** For `O=Cc1cc(Br)cc(Br)c1[O-].[Na+]` [Compound 17, 2-formyl-4,6-dibromo sodium phenolate], which “antimicrobial activity” value [5] is on record?
**A.** Its value is “best activity”.

**Q.** With `O=Cc1cc(Br)cc([N+](=O)[O-])c1[O-].[K+]` [Compound 19, 2-formyl-4-bromo-6-nitro potassium phenolate] as the compound, how does the “antimicrobial activity” value [5] read?
**A.** The value was “best activity”.

**Q.** Which results are given for `CC1(C)SC2C(NC(=O)[C@H](N)c3ccccc3)C(=O)N2C1C(=O)O` (stereo partly drawn) [ampicillin, 6-[[(2R)-aminophenylacetyl]amino]-3,3-dimethyl-7-oxo-4-thia-1-azabicyclo[3.2.0]heptane-2carboxylic acid]?
**A.** decrease of the number of CFU in biofilm ([1]; 10 mg/l): 10 times; MIC [9]: no effect; MIC [10]: no effect; effect on the number of CFU in biofilm ([3]; 10 mg/l): no effect whatsoever; MIC [11]: no effect; effect on the number of CFU in biofilm ([6]; 10 mg/l): no effect whatsoever; MIC [12]: no effect
